# Laboratory results: PubChem BioAssay (NCI)
#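 Interpolation was linear, between the two tested concentrations surrounding the appropriate level; five concentrations were tested over 48 hours in 96-well plates. GI50 is the concentration that inhibits growth by half. Definition used: TGI = concentration required for complete inhibition of growth.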
# How the values were obtained:
# Experiment in all cases: inhibition of tumour cell growth, NCI panel, 48 h
# HCC-2998 colon = test system: HCC-2998 colon
# SF-539 CNS = test system: SF-539 CNS
# SR leukemia = test system: SR leukemia
# SF-295 CNS = test system: SF-295 CNS
# OVCAR-4 ovarian = test system: OVCAR-4 ovarian
# NCI-H23 lung = test system: NCI-H23 lung
# MOLT-4 leukemia = test system: MOLT-4 leukemia
# MDA-MB-231 breast = test system: MDA-MB-231 breast
# NCI-H522 lung = test system: NCI-H522 lung
# M14 melanoma = test system: M14 melanoma
# HL-60(TB) leukemia = test system: HL-60(TB) leukemia
# HOP-92 NSCLC = test system: HOP-92 NSCLC
# SK-MEL-2 melanoma = test system: SK-MEL-2 melanoma
# A498 renal = test system: A498 renal
# MDA-MB-435 = test system: MDA-MB-435
# MALME-3M melanoma = test system: MALME-3M melanoma
# 786-0 renal = test system: 786-0 renal
# SNB-75 CNS = test system: SNB-75 CNS
# RXF 393 renal = test system: RXF 393 renal
# SW-620 colon = test system: SW-620 colon
# SK-OV-3 ovarian = test system: SK-OV-3 ovarian
# CCRF-CEM leukemia = test system: CCRF-CEM leukemia
# SF-268 CNS = test system: SF-268 CNS
# U251 CNS = test system: U251 CNS
# HOP-62 NSCLC = test system: HOP-62 NSCLC
# EKVX NSCLC = test system: EKVX NSCLC
# SNB-19 CNS = test system: SNB-19 CNS
# BT-549 breast = test system: BT-549 breast
# IGROV1 ovarian = test system: IGROV1 ovarian
# HS 578T breast = test system: HS 578T breast
# TK-10 renal = test system: TK-10 renal
# K-562 leukemia = test system: K-562 leukemia
# UACC-62 melanoma = test system: UACC-62 melanoma
compound,measurement,setting,value
CCCCN1C(=O)/C(=c2\sc3n(c2=O)C2C(NN=3)N(CC)C(=O)N2CC)c2ccccc21 (stereo not given),GI50,HCC-2998 colon,1380 nM
same,TGI,HCC-2998 colon,3810 nM
same,GI50,SF-539 CNS,371 nM
same,TGI,SF-539 CNS,1460 nM
same,GI50,SR leukemia,360 nM
same,GI50,SF-295 CNS,456 nM
same,TGI,SF-295 CNS,2260 nM
same,GI50,OVCAR-4 ovarian,909 nM
same,TGI,OVCAR-4 ovarian,4830 nM
same,GI50,NCI-H23 lung,1770 nM
same,TGI,NCI-H23 lung,> 35000 nM
same,GI50,MOLT-4 leukemia,2730 nM
same,TGI,MOLT-4 leukemia,> 100000 nM
same,GI50,MDA-MB-231 breast,1380 nM
same,TGI,MDA-MB-231 breast,3740 nM
same,GI50,NCI-H522 lung,508 nM
same,TGI,NCI-H522 lung,3440 nM
same,GI50,M14 melanoma,479 nM
same,TGI,M14 melanoma,2310 nM
same,GI50,HL-60(TB) leukemia,1050 nM
same,TGI,HL-60(TB) leukemia,3460 nM
same,GI50,HOP-92 NSCLC,1070 nM
same,TGI,HOP-92 NSCLC,4580 nM
same,GI50,SK-MEL-2 melanoma,1470 nM
same,TGI,SK-MEL-2 melanoma,5750 nM
same,GI50,A498 renal,169 nM
same,TGI,A498 renal,721 nM
same,GI50,MDA-MB-435,255 nM
same,TGI,MDA-MB-435,655 nM
same,GI50,MALME-3M melanoma,639 nM
same,TGI,MALME-3M melanoma,3270 nM
same,GI50,786-0 renal,1140 nM
same,TGI,786-0 renal,4180 nM
same,GI50,SNB-75 CNS,258 nM
same,TGI,SNB-75 CNS,1560 nM
same,GI50,RXF 393 renal,365 nM
same,TGI,RXF 393 renal,2230 nM
same,GI50,SW-620 colon,442 nM
same,TGI,SW-620 colon,> 100000 nM
same,GI50,SK-OV-3 ovarian,911 nM
same,TGI,SK-OV-3 ovarian,5890 nM
same,GI50,CCRF-CEM leukemia,1810 nM
same,TGI,CCRF-CEM leukemia,> 100000 nM
same,GI50,SF-268 CNS,959 nM
same,TGI,SF-268 CNS,4710 nM
same,GI50,U251 CNS,773 nM
same,TGI,U251 CNS,3390 nM
same,GI50,HOP-62 NSCLC,1210 nM
same,TGI,HOP-62 NSCLC,4950 nM
same,GI50,EKVX NSCLC,1380 nM
same,TGI,EKVX NSCLC,> 100000 nM
same,GI50,SNB-19 CNS,1610 nM
same,TGI,SNB-19 CNS,28100 nM
same,GI50,BT-549 breast,1760 nM
same,TGI,BT-549 breast,9190 nM
same,GI50,IGROV1 ovarian,764 nM
same,TGI,IGROV1 ovarian,3600 nM
same,GI50,HS 578T breast,749 nM
same,TGI,HS 578T breast,6040 nM
same,GI50,TK-10 renal,1820 nM
same,TGI,TK-10 renal,6260 nM
same,GI50,K-562 leukemia,542 nM
same,TGI,K-562 leukemia,> 100000 nM
same,GI50,UACC-62 melanoma,502 nM
same,TGI,UACC-62 melanoma,3550 nM
